Reference: patent publication US20260098017A1, “NOVEL AROMATIC RING DERIVATIVE CONTAINING AMIDE SUBSTITUTION AND USE THEREOF” (TIANJIN PHARMACEUTICAL BIOTECHNOLOGY CO., LTD., priority 2022, published 2026)

Key:
hERG channel = biological target: T1, hERG channel (Homo sapiens, UniProt Q12809); test: hERG potassium channel inhibition assay (manual patch clamp); assay type: cell-based; conditions: HEK-293 cell line stably expressing hERG channel, at the tested concentrations
T1 construct: expressed in transfected cells; host or cells: HEK-293
Protocol: Instrumentation: HEKA EPC 10 patch clamp amplifier.
Method: in this experiment, the blocking effect of the compounds on the current of the HEK-293 cell line stably expressing hERG channel was measured using the manual patch clamp technique, and the risk of the compounds on the inhibition of cardiac hERG potassium channel was assessed by fitting the concentration effect relationship.
Procedure: in the patch clamp operation, firstly, a capillary glass tube was pulled into a recording electrode using a microelectrode puller, then an electrode filled with intracellular solution was mounted into a microelectrode holder. A microelectrode manipulator was operated under an inverted microscope to immerse the electrode into an extracellular solution and the electrode resistance (Rpip) was recorded. Then, the electrode was slowly brought into contact with the cell surface, and a negative pressure was applied for suction to form a GΩ seal. At this point, a fast capacitance compensation was performed, and a negative pressure was continuously applied to suck and break the cell membrane to form a whole cell recording mode. Finally, a slow capacitance compensation was performed and experimental parameters including series resistance (Rs) and the like were recorded. No leakage compensation was performed. When the hERG current recorded by the whole cell was stable, the administration of drugs commenced, and each drug concentration acted for about 5 min (or until the current stabilization) before detecting the next concentration. A cover glass covered with cells was placed in a recording bath under an inverted microscope, the blank control extracellular solution and the working solution of the compounds to be tested sequentially flowed through the recording bath from low concentration to high concentration by using gravity perfusion to act on the cells, and solution exchange was performed using a peristaltic pump during recording. The current measured by each cell in the extracellular solution without the compound served as its own control group. Each concentration was independently assessed twice. All electrophysiological tests were performed at room temperature.
Data Analysis: firstly, the tail current (Peak tail currentcompound) after the action of each drug concentration and the blank control tail current (Peak tail currentcontrol) were normalized, then the inhibition rate
corresponding to each drug concentration was calculated, and the mean (Mean), standard deviation (SD) and standard error (SE) of the inhibition rate corresponding to each concentration were calculated, with data expressed as Mean±SE. The calculation of IC50 value and the fitting of dose-response curve for the compound were performed using GraphPad Prism software.

JAK2 JH1 kinase = JAK2 JH1 kinase (Homo sapiens, UniProt O60674); test: JAK2 JH1 enzyme assay in vitro (TR-FRET); assay type: biochemical; conditions: read-out: JAK 2 JH1 IC50
TYK2 JH1 kinase = biological target: T2, TYK2 JH1 kinase (Homo sapiens, UniProt P29597); test: TYK2 JH1 enzyme assay in vitro (TR-FRET); assay type: biochemical
T2 sequence (P29597 897-1176 limits assumed): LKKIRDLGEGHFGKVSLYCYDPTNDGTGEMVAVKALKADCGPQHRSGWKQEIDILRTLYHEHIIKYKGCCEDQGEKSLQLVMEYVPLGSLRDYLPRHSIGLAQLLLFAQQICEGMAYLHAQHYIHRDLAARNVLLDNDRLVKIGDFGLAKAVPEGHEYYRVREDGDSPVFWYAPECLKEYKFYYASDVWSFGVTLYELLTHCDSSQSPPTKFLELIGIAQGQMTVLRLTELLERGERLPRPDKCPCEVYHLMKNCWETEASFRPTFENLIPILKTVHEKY

[1] = system: mouse asthma model induced by OVA; test: Mouse asthma model induced by OVA: airway hyperresponsiveness (Penh); assay type: in vivo; conditions: for Enhanced pause (Penh) value: 2 mg/mL, 50 μL endotracheally, once daily for 3 days
Protocol: The efficacy of the compounds according to the present invention in a mouse asthma model induced by OVA could be assessed using the following method:
Test sample: the compound of Example 3 was weighed accurately, and dissolved in DMSO to prepare a solution at a concentration of 2 mg/mL.
30 female BALB/c mice were adaptively fed. After one week, 10 mice were randomly taken out and fed as a blank control group, and 20 mice were selected to establish the asthma model. The model mice were intraperitoneally injected with 0.2 mL of sensitizing solution for sensitization respectively on 0, 7 and 14 days. The sensitization solution contained 50 μg of OVA and 2 mg of Al(OH)3. The blank control group received an equivalent volume of physiological saline.
From day 21 to day 23 after sensitization, the mice in the model group and the administration group were subjected to nebulization stimulation with 5% OVA for 30 min, and the mice in the blank control group received nebulization with physiological saline for the same duration.
30 min before daily stimulation of the mice, 50 μl of physiological saline was administered endotracheally to mice in the blank control and model groups, and 50 μl of the corresponding drug was administered endotracheally to mice in the Example 3 compound group, once daily for 3 consecutive days.
Airway hyperresponsiveness was measured in each group of mice after the last stimulation. The mice were placed in a whole-body plethysmograph. After recording the baseline values of enhanced pause (Penh), the mice were stimulated by nebulized methacholine, wherein the concentrations of the methacholine were 0, 6.25 and 12.5 mg/mL from low to high, the nebulization volume was 100 μL per dose for 60 s.
Statistical analysis was conducted using SPSS software, Measurement data were expressed as mean±standard deviation. One Way ANOVA was used for inter-group comparisons, LSD test was used for those with homogeneous variance, and Dunnett-t test was used for those with heterogeneous variance. Differences were statistically significant with P<0.05.

[2] = system: imiquimod-induced mouse psoriasis-like model; test: Imiquimod-induced mouse psoriasis-like model (PASI score); assay type: in vivo; conditions: oral gavage, 10 mg/kg, 25 mg/kg, 50 mg/kg, bid, compared with the model group

Chain of JAK2 JH1 kinase (O60674 849-1124 limits assumed): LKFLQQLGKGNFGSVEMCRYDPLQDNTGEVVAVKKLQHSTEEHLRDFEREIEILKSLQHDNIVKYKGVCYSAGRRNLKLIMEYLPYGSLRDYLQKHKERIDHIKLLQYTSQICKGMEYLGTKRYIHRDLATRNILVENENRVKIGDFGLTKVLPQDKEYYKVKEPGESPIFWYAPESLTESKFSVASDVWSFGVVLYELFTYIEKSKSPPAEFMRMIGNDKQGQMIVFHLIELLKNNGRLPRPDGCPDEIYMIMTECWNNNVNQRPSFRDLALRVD
T1 sequence (Q12809 whole entry): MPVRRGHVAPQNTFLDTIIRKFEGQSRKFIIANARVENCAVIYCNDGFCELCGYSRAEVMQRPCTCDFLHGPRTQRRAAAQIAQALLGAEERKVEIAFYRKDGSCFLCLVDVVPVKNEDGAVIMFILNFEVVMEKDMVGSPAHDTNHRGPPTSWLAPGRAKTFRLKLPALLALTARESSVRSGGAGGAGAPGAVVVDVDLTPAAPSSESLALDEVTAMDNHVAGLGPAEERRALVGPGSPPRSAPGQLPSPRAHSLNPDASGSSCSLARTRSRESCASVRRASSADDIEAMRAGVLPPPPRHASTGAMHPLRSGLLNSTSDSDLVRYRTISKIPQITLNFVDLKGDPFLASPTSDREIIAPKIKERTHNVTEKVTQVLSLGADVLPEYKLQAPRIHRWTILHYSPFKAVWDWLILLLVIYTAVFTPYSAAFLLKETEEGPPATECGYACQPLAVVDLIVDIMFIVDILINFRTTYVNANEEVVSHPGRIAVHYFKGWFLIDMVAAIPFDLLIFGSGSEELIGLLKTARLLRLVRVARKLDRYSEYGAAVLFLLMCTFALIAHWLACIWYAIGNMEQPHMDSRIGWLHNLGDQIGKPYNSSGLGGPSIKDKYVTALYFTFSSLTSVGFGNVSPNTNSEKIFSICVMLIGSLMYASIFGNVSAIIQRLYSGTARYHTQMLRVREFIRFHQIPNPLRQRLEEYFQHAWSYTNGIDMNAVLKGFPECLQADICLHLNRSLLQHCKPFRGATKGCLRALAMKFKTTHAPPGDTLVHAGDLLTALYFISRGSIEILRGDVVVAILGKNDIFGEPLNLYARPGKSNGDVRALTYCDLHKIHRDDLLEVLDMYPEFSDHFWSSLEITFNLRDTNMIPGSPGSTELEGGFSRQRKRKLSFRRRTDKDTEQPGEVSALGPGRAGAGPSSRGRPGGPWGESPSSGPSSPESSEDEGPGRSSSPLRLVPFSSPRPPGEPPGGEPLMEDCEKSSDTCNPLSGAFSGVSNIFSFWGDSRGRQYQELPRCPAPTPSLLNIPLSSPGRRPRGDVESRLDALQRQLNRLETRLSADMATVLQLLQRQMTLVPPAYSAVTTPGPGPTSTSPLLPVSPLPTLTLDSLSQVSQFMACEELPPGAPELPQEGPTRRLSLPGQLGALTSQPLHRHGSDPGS

For `[2H]C([2H])([2H])NC(=O)c1nnc(NC(=O)C2CC2)cc1Nc1cccc(C(=O)Nc2cccc(C)c2)c1OC` [Example 3], the hERG inhibition (hERG channel) was “no significant inhibition”, the IC50 (JAK2 JH1 kinase) was > 10 µM and the IC50 (TYK2 JH1 kinase) was > 10 µM. For the same compound, the “Effect on enhanced pause (Penh) values compared to the model group” value ([1]; administration before stimulation, P<0.05) was “significantly reduce”, the “Enhanced pause (Penh) value” ([1]; methacholine 0 mg/mL) was 0.86 ± 0.31 and the “Enhanced pause (Penh) value” ([1]; methacholine 6.25 mg/mL) was 1.79 ± 0.45. The “Enhanced pause (Penh) value” ([1]; methacholine 12.5 mg/mL) was 2.94 ± 0.66 and the “Improvement of psoriasis symptoms by oral administration” value [2] was “effectively improve psoriasis symptoms”.
